Experimental data: patent US12383623B2, “Liquid pharmaceutical compositions of polypeptide conjugates and methods of uses thereof” (BEIJING QL BIOPHARMACEUTICAL CO., LTD., priority 2022, dated 2025)

Experiments:
human serum albumin = human serum albumin (Homo sapiens, UniProt P02768); test: Human serum albumin binding by surface plasmon resonance (Biacore 8K); conditions: human serum albumin bound to CM5 chip
Protocol: Method: Binding of molecules to serum albumin was characterized by surface plasmon resonance in a Biacore 8K instrument. Serum albumin from different species was covalently bound to CM5 sensor chips surface until 4000 RU was reached. The chip was blocked by 1M ethanolamine with flowrate of 10 μL/min for 420 s. Each molecule sample was diluted and injected at a flow rate of 30 μL/min to allow for binding to chip-bound albumin for 120 s and for dissociation for 300 s. Binding buffer without molecule was sent over the chip at the flow rate of 20 seconds to allow spontaneous dissociation of bound molecule for 30 seconds.

db/db mice = test: Non-fasting glucose in db/db mice after a single s.c. dose; format: in vivo
Protocol: Method: 10 weeks old male db/db mice were injected subcutaneously with GLP-1 polypeptide conjugate once. […] Delta blood glucose is glucose subtracted by baseline level. […] The area under the curve for delta blood glucose from 0 until 192 hours (AUCΔ8G 0-192 h) was calculated.

GLP-1 receptor = GLP-1 receptor (Homo sapiens, UniProt P43220); conditions: J. Med. Chem. 2015, 58, 7370-7380; cited from earlier work
[1] = Body weight loss in C57 lean mice after a single s.c. dose; format: in vivo, C57BL/6 mice; conditions: 30 nmol/kg s.c. once
Protocol: Method: 10 week old male C57BL/6 mice were injected subcutaneously with protein once on Day1. Body weight was measured daily and five animals were used for each treatment group. Body weight was monitored for each individual animal. % BW loss=100*(BW on Day n-BW on Day 1)/(BW on Day 1). […] The area under the curve for body weight loss (%) from 0 until 8 days (AUC ΔBW 0-8d) was calculated.

GLP-1 receptor, sequence (P43220 24-463, species assumed): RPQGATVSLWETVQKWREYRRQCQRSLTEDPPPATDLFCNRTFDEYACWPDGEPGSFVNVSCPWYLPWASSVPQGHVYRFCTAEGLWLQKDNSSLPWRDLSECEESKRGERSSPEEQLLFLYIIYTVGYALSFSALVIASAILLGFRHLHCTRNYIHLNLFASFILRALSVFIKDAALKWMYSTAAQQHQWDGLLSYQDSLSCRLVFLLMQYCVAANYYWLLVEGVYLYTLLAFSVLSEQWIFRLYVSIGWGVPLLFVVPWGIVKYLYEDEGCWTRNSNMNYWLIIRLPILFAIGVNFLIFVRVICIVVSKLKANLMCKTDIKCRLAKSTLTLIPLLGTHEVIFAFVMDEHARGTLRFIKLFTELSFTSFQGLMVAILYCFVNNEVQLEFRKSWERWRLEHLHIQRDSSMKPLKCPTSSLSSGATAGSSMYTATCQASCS
human serum albumin, sequence (P02768 25-609): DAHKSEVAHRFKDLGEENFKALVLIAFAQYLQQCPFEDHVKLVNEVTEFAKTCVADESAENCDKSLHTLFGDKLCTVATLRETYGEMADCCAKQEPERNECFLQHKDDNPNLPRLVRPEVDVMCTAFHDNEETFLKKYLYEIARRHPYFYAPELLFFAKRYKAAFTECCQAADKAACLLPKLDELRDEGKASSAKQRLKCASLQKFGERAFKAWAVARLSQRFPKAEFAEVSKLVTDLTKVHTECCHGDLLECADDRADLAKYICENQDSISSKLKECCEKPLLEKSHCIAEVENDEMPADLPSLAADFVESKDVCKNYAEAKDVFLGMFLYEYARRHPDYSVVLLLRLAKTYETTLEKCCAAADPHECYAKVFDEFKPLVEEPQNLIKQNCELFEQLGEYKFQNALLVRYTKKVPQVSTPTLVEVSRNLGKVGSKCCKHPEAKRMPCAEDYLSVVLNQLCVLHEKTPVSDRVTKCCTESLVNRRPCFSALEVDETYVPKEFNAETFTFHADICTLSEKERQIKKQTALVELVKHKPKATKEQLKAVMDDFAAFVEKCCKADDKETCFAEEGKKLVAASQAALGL

## Semaglutide [reference compound]
Human serum albumin
  Rmax: 55.2 RU
db/db mice; 3 nmol/kg s.c. once
  AUCΔBG 0-192 h: -317.0 mmol·h/L
db/db mice; 10 nmol/kg s.c. once
  AUCΔBG 0-192 h: -583.4 mmol·h/L
db/db mice; 30 nmol/kg s.c. once
  AUCΔBG 0-192 h: -527.1 mmol·h/L
GLP-1 receptor
  Loss in GLP-1 receptor binding in presence of human serum albumin relative to unconjugated counterpart: 939 fold
[1]; Study 1 (FIG. 1A)
  AUC ΔBW 0-8 d: −9.3 day*%
[1]; Study 2 (FIG. 1B)
  AUC ΔBW 0-8 d: −13.2 day*%
